# Values quoted from earlier work as cited in publication PMC10784415 (Developmental dynamics : an official publication of the …, 2023).
# Test system: tooth buds
# Details: animal studies; cited from earlier work
smiles,measurement,value
COc1cc2nccc(Oc3ccc(NC(=O)Nc4cc(C)on4)c(Cl)c3)c2cc1OC [tivozanib],Effect on tooth buds,shallower or narrower tooth buds
